Measured values from patent US20120035161A1, “Novel Compositions and Methods of Treating Diseases Using the Same” (CORRIDOR PHARMACEUTICALS, INC., priority 2006, published 2012).
Where “and” joins values, the source holds several entries; their conditions need not be identical. Identical values can stand only once.

Key:
[1] = test system: cryopreserved mixed gender human hepatocytes; assay: Hepatocyte stability assay; assay type: in vitro ADME
Description: Test compounds (5 μM) were incubated with cryopreserved mixed gender human hepatocytes pooled from at least 3 donors. Cell viability of hepatocytes was assessed by a Trypan Blue assay prior to the initiation of the stability assay. The final hepatocyte cell density was 1.5×10^6 viable cells/mL, Samples were taken at 2 time points: 0 and 60 minutes. As positive controls, testosterone (20 μM) and 7-hydroxy-coumarin (100 μM) were incubated and sampled at 5 time points: 0, 15, 30, 60, and 120 minutes. Aliquots were removed and combined (50/50) with acetonitrile to terminate the reaction. Samples were mixed for 10 minutes and centrifuged. The supernatants were transferred to vial for analysis by HRMS. In this assay, both test compound and a des-glycine metabolite (M1) are quantified based on peak area response ratios.
The enzymatic activities of the human cryopreserved hepatocytes used in this study were verified in parallel by determining the disappearance of testosterone (expressed as half-life) and the formation of 7-hydroxycoumarin glucuronide and 7-hydroxycoumarin sulfate (expressed as a formation rate).

[2] = Phospholipidosis assay (LipidTox); assay type: cell-based; conditions: human
Description: (§1) More recently, fluorescent dyes have been utilized to assess phospholipidosis in a high throughput manner (Nioi et al., 2007, Toxicol. Sci. 99:162-173). In this assay, HepG2 cells are plated in MEM growth medium and allowed to incubate overnight. Cells are treated with test compounds that have been added to the assay medium (10% fetal bovine serum) containing LipidTox (fluorescent lipophilic dye). After 48 h incubation, cells are fixed and stained with Hoechst. Plates are scanned with an automated fluorescent microscope (Thermo Fisher Cellomics ArrayScan 4.5) and image analysis is used to quantitate cell number and phospholipid accumulation. Compounds are tested in triplicate at multiple concentrations. Three reference compounds, sertraline, perhexyline, and meclizine (high, medium, and low inducers of phospholipidosis, respectively) are included in each assay. The data is expressed as fold induction over background and the % of the positive control (sertraline), which is calculated using the following equation:
(§2) % positive control=100×(RFUcompound−RFUbackground)/(RFUsertaline−RFUbackground),
(§3) where RFU=Relative Fluorescence Unit

HepG2 cells = assay: Phospholipidosis assay (LipidTox); assay type: cell-based
Description: as §1, §2, §3

TNF-α = assay: Model of LPS-mediated cytokine production, serum TNF-α; assay type: in vivo, CD1:ICR mice; conditions: for TNFα inhibition, dose-response study: IP, up to a dose of 5 mg/kg
Description: (§4) Both ICI-685 and ICI-735 were formulated in water. For the time course study, both drugs were formulated at a concentration of 1 mg/ml and dosed 10 ml/kg to produce a dose of 10 mg/kg. For the dose-response study, drug was formulated at concentrations of 0.05, 0.2 and 0.5 mg/ml and dosed at a volume of 10 ml/kg to produce doses of 0.5, 2 and 5 mg/kg, respectively. Animals were dosed IV or IP.
CD1:ICR mice were obtained from Harlan (Indianapolis, Ind.) at 6 weeks of age. Animals were housed 5 per cage, kept on a 12 hr light dark cycle and fed food and water ad libitum. Animals were tested at 8-10 weeks of age.
(§5) Lipopolysaccharide (heat killed E. coli 0127:B5; Sigma Aldrich) was prepared in distilled water at a concentration of 0.025 mg/ml. LPS was dosed at a volume of 10 ml/kg (IP) to produce a final dose of 0.25 mg/kg (approximately 7.5 μg/mouse). Drugs were dosed prior to LPS administration as indicated elsewhere herein. Blood was collected by retro-orbital eye bleed 90 minutes after LPS administration, Serum was prepared from blood and TNF-α and IL-1β levels were measured by using the OPT-EIA mouse TNF-α and IL-1β ELISA kits (BD Biosciences) as per directions of the manufacturer.
The first study was designed to determine the optimal route of administration and the optimal pre-treatment time. Two pre-dose time course studies were conducted. The first (Study 1A) was conducted with 3 pre-dose time points (2, 6 and 18 hrs). The second was conducted at 0, 1 and 2 hr predose time points. For both studies, drug was dosed IP or IV.
Using data from the first study, a second study was conducted that was designed to measure dose-response activity of each compound. Compounds were tested at doses of […]., 2.0 and 5 mg/kg using the route and pre-treatment time that produced the best activity.
as §4, with “Compounds ICI-715, ICI-824, ICI-953” for “Both ICI-685”, “ICI-954” for “ICI-735”, “study,” for “study, both”, “drugs were” for “drug was”
as §5, with “mg/ml,” for “mg/ml.”, “[…]).” for “μg/mouse).”, “above.” for “elsewhere herein.”, “administration.” for “administration,”
The first study was designed to determine the optimal route of administration and the optimal pre-treatment time. One pre-dose time course was conducted (for all compounds) with compounds administered at 0, 1 and 2 hrs prior to LPS treatment. For both studies, drug was dosed IP or IV. The IP study and IV study were conducted on separate days.
Using data from the first study, a second study was conducted that was designed to measure dose-response activity of each compound. Compounds were tested at doses of 0.5, 2.0 and 5 mg/kg using the route and pre-treatment time that produced the best activity.

[3] = target: T1, Serotonin (5-Hydroxytryptamine) 5-HT1A (Homo sapiens, UniProt P08908); assay: Radioligand binding, 5-HT1A ([3H] 8-OH-DPAT)
T1 construct: expressed in transfected cells; host or cells: CHO cells
T1 sequence (P08908 1-422): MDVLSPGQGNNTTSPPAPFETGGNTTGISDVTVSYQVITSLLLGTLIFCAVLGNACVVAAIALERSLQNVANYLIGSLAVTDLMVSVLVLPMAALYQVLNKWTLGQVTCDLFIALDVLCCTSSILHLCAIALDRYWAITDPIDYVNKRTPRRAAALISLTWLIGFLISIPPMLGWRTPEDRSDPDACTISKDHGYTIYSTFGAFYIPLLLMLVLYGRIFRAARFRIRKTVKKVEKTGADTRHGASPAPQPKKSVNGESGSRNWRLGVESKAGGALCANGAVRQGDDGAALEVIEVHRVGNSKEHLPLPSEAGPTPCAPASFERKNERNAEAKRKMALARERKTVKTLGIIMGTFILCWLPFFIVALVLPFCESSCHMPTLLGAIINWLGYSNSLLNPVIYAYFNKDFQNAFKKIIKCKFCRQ
Description: (§6) The methods employed in this study have been adapted from the scientific literature to maximize reliability and reproducibility. Reference standards were run as an integral part of each assay to ensure the validity of the results obtained. Assays were performed under conditions as described below. Where presented, IC50 values were determined by a non-linear, least squares regression analysis using the Data Analysis Toolbox (MDL Information Systems, San Leandro, Calif., USA). Where inhibition constants (Ki) are presented, the Ki values were calculated using the equation of Cheng and Prusoff (Cheng, Y., Prusoff, W. H., Biochem. Pharmacol. 22:3099-3108, 1973) using the observed IC50 of the tested compound, the concentration of radioligand employed in the assay, and historical values for the KD of the ligand. Where presented, the Hill coefficient (nu), defining the slope of the competitive binding curve, was calculated using the Data Analysis Toolbox.

[4] = target: T2, Serotonin (5-Hydroxytryptamine) 5-HT1B (Rattus norvegicus, UniProt P28564); assay: Assay 271200 radioligand binding, 5-HT1B; set-up: species or system Wistar Rat
T2 construct: from tissue
Description: as §6

[5] = test system: Serotonin (5-Hydroxytryptamine) 5-HT2, Non-Selective; assay: Assay 271600 radioligand binding, 5-HT2 non-selective; set-up: species or system Wistar Rat
Description: as §6

[6] = test system: Serotonin (5-Hydroxytryptamine) 5-HT1, Non-Selective; assay: Assay 271000 radioligand binding, 5-HT1 non-selective; set-up: species or system Wistar Rat
Description: as §6

[7] = T = 60 minutes, 5 μM test compound

T2 sequence (P28564 whole entry): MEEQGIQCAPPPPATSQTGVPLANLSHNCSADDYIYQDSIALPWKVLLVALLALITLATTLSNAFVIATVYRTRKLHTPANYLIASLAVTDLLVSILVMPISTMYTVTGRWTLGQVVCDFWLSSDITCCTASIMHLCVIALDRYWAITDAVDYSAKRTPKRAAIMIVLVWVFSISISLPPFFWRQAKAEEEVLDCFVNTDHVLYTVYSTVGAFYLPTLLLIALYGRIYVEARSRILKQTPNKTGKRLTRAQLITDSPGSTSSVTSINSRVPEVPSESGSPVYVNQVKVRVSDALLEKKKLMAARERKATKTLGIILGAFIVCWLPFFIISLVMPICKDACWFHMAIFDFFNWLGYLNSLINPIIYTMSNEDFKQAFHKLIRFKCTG

Structure (SMILES) | % INHIBITION ([5]; 0.1 μM) | % INHIBITION ([5]; 10 μM) | % INHIBITION ([6]; 0.1 μM) | % INHIBITION ([6]; 10 μM) | % INHIBITION ([3]; 0.1 μM) | % INHIBITION ([3]; 10 μM) | % INHIBITION ([4]; 0.1 μM) | % INHIBITION ([4]; 10 μM) | further results
CC(C)(N)C(=O)NCCN1CCN(CCCN2c3ccccc3Sc3ccc(C(F)(F)F)cc32)CC1 [Compound 36a, 2-Amino-2-methyl-N-(2-(4-(3-(2-(trifluoromethyl)-10H-phenothiazin-10-yl)propyl)piperazin-1-yl)ethyl)propanamide] |  |  |  |  |  |  |  |  | Relative Level (%) ([1]; T = 0 minutes, 5 μM test compound): 97.3% and 102.8%; Peak Areas [1, 7]: 3.42E+06 and 3.82E+06; Relative Level (%) [1, 7]: 99.0% and 109.1%; susceptibility to the metabolic transformation to the metabolite M1 ([1]; compared with ICI-735): less susceptible
O=CNCC(=O)NCCN1CCN(CCCN2c3ccccc3Sc3ccc(C(F)(F)F)cc32)CC1 [Compound 37b, 2-formamido-N-(2-(4-(3-(2-(trifluoromethyl)-10H-phenothiazin-10-yl)propyl)piperazin-1-yl)ethyl)acetamide] |  |  |  |  |  |  |  |  | cytotoxicity at 48 h, 1 µM [2]: 32%; cytotoxicity at 48 h, 3 µM [2]: 17%; cytotoxicity at 48 h, 10 µM [2]: 46%; cytotoxicity at 48 h, 30 µM [2]: 100%; fold induction at 48 h, 1 µM [2]: 1; fold induction at 48 h, 3 µM [2]: 4; fold induction at 48 h, 10 µM [2]: 12; cytotoxicity to HepG2 cells (HepG2 cells): less cytotoxicity; propensity to form phospholipidosis (HepG2 cells): lower propensity; % Positive Control (HepG2 cells; human, 48 h, 1 μM): 0.2%; % Positive Control (HepG2 cells; human, 48 h, 3 μM): 5.8%; % Positive Control (HepG2 cells; human, 48 h, 10 μM): 21.3%
CN(C)S(=O)(=O)c1ccc2c(c1)N(CCCN1CCN(CCN)CC1)c1ccccc1S2 [ICI-715] | 18% | 83% | 15% | 62% |  |  |  |  | inhibition of TNFα (TNF-α; dose-response, all doses tested 0.5 to 5 mg/kg, IV): ≥ 50%; inhibition at 0.1 µM ([3]; 0.1 μM): 5%; inhibition at 10 µM ([3]; 10 μM): 87%; inhibition at 0.1 µM ([4]; 0.1 μM): 23%; inhibition at 10 µM ([4]; 10 μM): 90%
FC(F)(F)c1ccc2c(c1)N(CCCC1CCNCC1)c1ccccc1S2 [ICI-824] | 28% | 84% | −14% | 11% |  |  |  |  | TNFα inhibition, dose-response study (TNF-α): ineffective; inhibition at 0.1 µM ([3]; 0.1 μM): 2%; inhibition at 10 µM ([3]; 10 μM): 53%; inhibition at 0.1 µM ([4]; 0.1 μM): 2%; inhibition at 10 µM ([4]; 10 μM): 6%
CNCC(=O)NCCN1CCC(CCCN2c3ccccc3Sc3ccc(C(F)(F)F)cc32)CC1 [ICI-849] | 15% | 85% | −2% | 10% |  |  |  |  | inhibition at 0.1 µM ([3]; 0.1 μM): 18%; inhibition at 10 µM ([3]; 10 μM): 65%; inhibition at 0.1 µM ([4]; 0.1 μM): -7%; inhibition at 10 µM ([4]; 10 μM): -2%
NCCN1CCN(CCCCN2c3ccccc3Sc3ccc(C(F)(F)F)cc32)CC1 [ICI-953] | 16% | 71% | −10% | −1% | 5% | 54% | 7% | 2% | TNFα inhibition, dose-response study (TNF-α): ineffective
NCC(=O)NCCN1CCN(CCCCN2c3ccccc3Sc3ccc(C(F)(F)F)cc32)CC1 [ICI-954] | 21% | 89% | −3% | 18% | 6% | 56% | 4% | −1% | TNFα inhibition, dose-response study (TNF-α): ineffective
FC(F)(F)c1ccc2c(c1)N(CCC1CCNCC1)c1ccccc1S2 [ICI-1007] | 51% | 87% | −12% | 24% | 2% | 48% | 8% | 48% | 
NCCN1CCC(CCN2c3ccccc3Sc3ccc(C(F)(F)F)cc32)CC1 [ICI-1008] | 38% | 94% | −20% | 3% | 4% | 69% | −3% | 0% | 
Cc1cccc(CN2CCN(C(c3ccccc3)c3ccc(Cl)cc3)CC2)c1 (stereo not shown) [Meclizine, meclizine, reference compound] |  |  |  |  |  |  |  |  | cytotoxicity at 48 h, 25 µM [2]: 0%; fold induction at 48 h, 25 µM [2]: 13; % Positive Control (HepG2 cells; human, 48 h, 25 μM): 24%
C1CCC(C(CC2CCCCN2)C2CCCCC2)CC1 (stereo not shown) [Perhexil, perhexyline, reference compound] |  |  |  |  |  |  |  |  | % Cytotoxicity (HepG2 cells; 3 μM, 48 h): 10%; Fold Induction (HepG2 cells; 3 μM, 48 h): 38; % Positive Control (HepG2 cells; 3 μM, 48 h, positive control sertraline): 72%
CN[C@H]1CC[C@@H](c2ccc(Cl)c(Cl)c2)c2ccccc21 [Sertaline, sertraline, reference compound] |  |  |  |  |  |  |  |  | cytotoxicity at 48 h, 3 µM [2]: 15%; fold induction at 48 h, 3 µM [2]: 52; % Positive Control (HepG2 cells; human, 48 h, 3 μM): 100%
